Assay results from ChEMBL document CHEMBL4513148, “CO-ADD screening of Stellenbosch University (South Africa) compounds”.
Values after ≈ are worked out from the molar mass of the structure shown.

Legend:
Staphylococcus aureus = experiment: microbe, parasite or virus in culture; settings: ATCC 43300, 18 h, ASSAY_TEST Inhibition of Bacterial Growth, detection method Absorption (OD600), MEDIA CAMHB, plate type 384well, NBS, CORNING #3640
Description: Antibacterial activity against Staphylococcus aureus MRSA ATCC 43300 (CO-ADD:GP_020); MIC in CAMBH media, using NBS plates, by OD(600)

Klebsiella pneumoniae = experiment: microbe, parasite or virus in culture; settings: ATCC 700603, 18 h, ASSAY_TEST Inhibition of Bacterial Growth, detection method Absorption (OD600), MEDIA CAMHB, plate type 384well, NBS, CORNING #3640
Description: Antibacterial activity against Klebsiella pneumoniae MDR ATCC 70063 (CO-ADD:GN_003); MIC in CAMBH media using NBS plates, by OD(600)

HEK293 = experiment: cells; type: functional; settings: Homo sapiens, ATCC CRL1573, HEK293; ASSAY_TEST Inhibition of Cell Viability; detection method Resazurin; Fluorescence (ex560/em590); MEDIA DMEM with 10% FBS; plate type 384well; TC; CORNING #3712; time 18 hr
Pseudomonas aeruginosa = experiment: microbe, parasite or virus in culture; settings: ATCC 27853, 18 h, ASSAY_TEST Inhibition of Bacterial Growth, detection method Absorption (OD600), MEDIA CAMHB, plate type 384well, NBS, CORNING #3640
Description: Antibacterial activity against Pseudomonas aeruginosa ATCC 27853 (CO-ADD:GN_042); MIC in CAMBH media using NBS plates, by OD(600)

Acinetobacter baumannii = experiment: microbe, parasite or virus in culture; settings: ATCC 19606, 18 h, ASSAY_TEST Inhibition of Bacterial Growth, detection method Absorption (OD600), MEDIA CAMHB, plate type 384well, NBS, CORNING #3640
Description: Antibacterial activity against Acinetobacter baumannii ATCC 19606 (CO-ADD:GN_034); MIC in CAMBH media using NBS plates, by OD600

Candida albicans = experiment: microbe, parasite or virus in culture; settings: ATCC 90028, ASSAY_TEST Inhibition of Fungal Growth, detection method Absorption (OD530), plate type 384well, NBS, CORNING #3640
Description: Antifungal activity against Candida albicans ATCC 90028 (CO-ADD:FG_001); MIC in YNB media using NBS plates, by OD630

Escherichia coli = experiment: microbe, parasite or virus in culture; settings: ATCC 25922, 18 h, ASSAY_TEST Inhibition of Bacterial Growth, detection method Absorption (OD600), MEDIA CAMHB, plate type 384well, NBS, CORNING #3640
Description: Antibacterial activity against Escherichia coli ATCC 25922 (CO-ADD:GN_001); MIC in CAMBH media using NBS plates, by OD(600)

Description for Cryptococcus neoformans: Antifungal activity against Cryptococcus neoformans H99 ATCC 208821 (CO-ADD:FG_002); MIC in YNB media using NBS plates, by Resazurin OD(600-570)

Row | Compound | MIC (Staphylococcus aureus) [µg/mL] | MIC (Klebsiella pneumoniae) [µg/mL] | MIC (Pseudomonas aeruginosa) [µg/mL] | MIC (Acinetobacter baumannii) [µg/mL] | MIC (Candida albicans) [µg/mL] | MIC (Escherichia coli) [µg/mL] | MIC (Cryptococcus neoformans) [µg/mL] | CC50 (HEK293) [µg/mL]
1 | CC(C)(CO)[C@@H](O)C(=O)NCCC(=O)NCCc1ccccc1 | 32 (≈ 99.3 µM) | > 32 | > 32 | > 32 | > 32 | > 32 | > 32 | > 32
2 | CCCCCCCNC(=O)CCNC(=O)C(O)C(C)(C)CN (stereo not given) | > 32 | > 32 | > 32 | > 32 | > 32 | > 32 | > 32 | > 32
3 | CCCCCCCNC(=O)CCNC(=O)[C@H](O)C(C)(C)COP(=O)(O)O | > 32 | > 32 | > 32 | > 32 | > 32 | > 32 | > 32 | > 32
4 | CN(CCc1ccccc1)C(=O)CCNC(=O)[C@H](O)C(C)(C)CO | > 32 | > 32 | > 32 | > 32 | > 32 | > 32 | > 32 | > 32
5 | CCCCCCCN(C)C(=O)CCNC(=O)[C@H](O)C(C)(C)CO | > 32 | > 32 | > 32 | > 32 | > 32 | > 32 | > 32 | > 32
6 | CC(CNC(=O)[C@H](O)C(C)(C)CO)C(=O)NCCc1ccccc1 (stereo not given in full) | > 32 | > 32 | > 32 | > 32 | > 32 | > 32 | > 32 | > 32

Second part, led by results:

Row | MIC (Staphylococcus aureus) [µg/mL] | MIC (Klebsiella pneumoniae) [µg/mL] | MIC (Pseudomonas aeruginosa) [µg/mL] | MIC (Acinetobacter baumannii) [µg/mL] | MIC (Candida albicans) [µg/mL] | MIC (Escherichia coli) [µg/mL] | MIC (Cryptococcus neoformans) [µg/mL] | Compound | CC50 (HEK293) [µg/mL]
7 | 0.5 (≈ 1.58 µM) | > 32 | > 32 | > 32 | > 32 | > 32 | > 32 | CCCCCCCNC(=O)CCNC(=O)[C@H](O)C(C)(C)CO | > 32
8 | > 32 | > 32 | > 32 | > 32 | > 32 | > 32 | > 32 | CCCCCCCNC(=O)/C=C/NC(=O)[C@H](O)C(C)(C)CO | > 32
9 | > 32 | > 32 | > 32 | > 32 | > 32 | > 32 | > 32 | CCCCCCCNC(=O)CC(C)NC(=O)[C@H](O)C(C)(C)CO (stereo not given in full) | > 32
10 | > 32 | > 32 | > 32 | > 32 | > 32 | > 32 | > 32 | CCCCCCCNC(=O)C(C)CNC(=O)[C@H](O)C(C)(C)CO (stereo not given in full) | > 32
